The record followed here is ChEMBL document CHEMBL2176988 (J Med Chem, 2012).

The structures appear in SMILES notation.

Experiment [1] has as its target T1, Neuronal acetylcholine receptor; alpha3/beta4 (Homo sapiens, UniProt P30926+P32297). As to the kind of experiment: Displacement of [3H]epibatidine from human alpha3beta4 nAChR expressed in CHO cells after 2 hrs by liquid scintillation counting. In kind it is cell-based. On the technique in general: In a radioligand displacement assay an active substance lowers the binding of a labelled ligand.

Experiment [2] has as its target Neuronal acetylcholine receptor; alpha4/beta2 (Rattus norvegicus, UniProt P09483+P12390). As to the kind of experiment: Displacement of [3H]epibatidine from alpha4beta2 nAChR in Sprague-Dawley rat cortex after 2 hrs by liquid scintillation counting.
The target in experiment [3] is T1, Neuronal acetylcholine receptor; alpha3/beta4. As to the kind of experiment: Agonist activity at human alpha3beta4 nAChR expressed in CHO cells assessed as calcium flux by calcium4-based FLIPR assay relative to nicotine. The format is functional, cell-based. Background: Calcium assays in cells follow changes in intracellular calcium, usually with a dye or a luminescent sensor.

Experiment [4] has as its target Neuronal acetylcholine receptor subunit alpha-7 (Homo sapiens, UniProt P36544). As to the kind of experiment: Displacement of [3H]epibatidine from human alpha7 nAChR expressed in CHO cells after 2 hrs by liquid scintillation counting. In kind it is cell-based.
The target of experiment [5] is T2, Neuronal acetylcholine receptor; alpha4/beta2 (Homo sapiens, UniProt P17787+P43681). The experiment is described as follows: Agonist activity at alpha4beta2 nAChR in human SH-EP1 cells assessed as calcium flux by calcium4-based FLIPR assay relative to nicotine. In kind it is functional, cell-based.
Experiment [6] addresses T2, Neuronal acetylcholine receptor; alpha4/beta2. The experiment is described as follows: Agonist activity at alpha4beta2 nAChR in human SH-EP1 cells assessed as calcium flux by calcium4-based FLIPR assay. The format is functional, cell-based.
Experiment [7] has the same target. As to the kind of experiment: Displacement of [3H]nicotine from alpha4beta2 nAChR in human SH-EP1 cells after 2 hrs by liquid scintillation assay. The format is cell-based.
The target in experiment [8] is T1, Neuronal acetylcholine receptor; alpha3/beta4. The experiment is described as follows: Agonist activity at human alpha3beta4 nAChR expressed in CHO cells assessed as calcium flux by calcium4-based FLIPR assay. In kind it is functional, cell-based.

T2 sequence (P17787 whole entry): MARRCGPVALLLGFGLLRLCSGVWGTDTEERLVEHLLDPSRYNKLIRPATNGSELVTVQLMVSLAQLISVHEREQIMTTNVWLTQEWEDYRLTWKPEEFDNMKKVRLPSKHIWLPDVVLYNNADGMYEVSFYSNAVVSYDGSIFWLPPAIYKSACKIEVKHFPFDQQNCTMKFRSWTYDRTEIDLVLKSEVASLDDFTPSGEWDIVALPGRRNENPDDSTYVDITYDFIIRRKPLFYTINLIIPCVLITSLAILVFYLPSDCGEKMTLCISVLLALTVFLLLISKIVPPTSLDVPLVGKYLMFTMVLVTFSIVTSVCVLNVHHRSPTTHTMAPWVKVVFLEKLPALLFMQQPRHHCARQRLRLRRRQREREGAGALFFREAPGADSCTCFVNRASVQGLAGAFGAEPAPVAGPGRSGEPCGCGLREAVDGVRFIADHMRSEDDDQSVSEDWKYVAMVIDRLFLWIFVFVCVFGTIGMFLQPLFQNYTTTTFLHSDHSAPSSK
T2 sequence (P43681 whole entry): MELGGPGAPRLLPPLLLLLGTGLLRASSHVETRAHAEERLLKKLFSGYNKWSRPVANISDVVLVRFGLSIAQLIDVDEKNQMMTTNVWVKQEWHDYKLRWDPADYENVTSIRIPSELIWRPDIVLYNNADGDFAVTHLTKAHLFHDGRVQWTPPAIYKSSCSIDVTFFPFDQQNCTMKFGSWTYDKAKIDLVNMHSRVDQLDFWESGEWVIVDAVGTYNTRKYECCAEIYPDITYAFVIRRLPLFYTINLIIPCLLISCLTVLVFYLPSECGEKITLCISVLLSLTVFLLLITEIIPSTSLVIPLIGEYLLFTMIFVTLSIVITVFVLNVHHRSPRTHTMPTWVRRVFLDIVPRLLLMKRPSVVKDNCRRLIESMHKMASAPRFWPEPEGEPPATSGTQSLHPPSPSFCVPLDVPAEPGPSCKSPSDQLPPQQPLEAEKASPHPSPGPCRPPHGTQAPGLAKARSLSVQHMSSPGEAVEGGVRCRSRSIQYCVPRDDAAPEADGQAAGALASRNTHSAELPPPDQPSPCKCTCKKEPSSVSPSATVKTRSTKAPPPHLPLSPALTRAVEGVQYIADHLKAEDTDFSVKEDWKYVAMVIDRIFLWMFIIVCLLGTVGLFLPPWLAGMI
T1 sequence (P30926 whole entry): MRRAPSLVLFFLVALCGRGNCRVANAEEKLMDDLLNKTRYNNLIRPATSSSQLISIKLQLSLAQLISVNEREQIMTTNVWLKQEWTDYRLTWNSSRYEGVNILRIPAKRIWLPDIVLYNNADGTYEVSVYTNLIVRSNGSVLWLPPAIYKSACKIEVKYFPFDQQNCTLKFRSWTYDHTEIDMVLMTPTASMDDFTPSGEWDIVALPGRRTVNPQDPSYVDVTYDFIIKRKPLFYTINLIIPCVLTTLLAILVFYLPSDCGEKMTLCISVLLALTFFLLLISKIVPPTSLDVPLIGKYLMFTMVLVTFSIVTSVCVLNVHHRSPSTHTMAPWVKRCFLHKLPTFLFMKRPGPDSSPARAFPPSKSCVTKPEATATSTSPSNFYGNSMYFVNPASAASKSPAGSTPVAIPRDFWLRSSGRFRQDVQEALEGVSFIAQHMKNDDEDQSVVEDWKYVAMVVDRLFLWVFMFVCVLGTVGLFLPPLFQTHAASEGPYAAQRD
T1 sequence (P32297 whole entry): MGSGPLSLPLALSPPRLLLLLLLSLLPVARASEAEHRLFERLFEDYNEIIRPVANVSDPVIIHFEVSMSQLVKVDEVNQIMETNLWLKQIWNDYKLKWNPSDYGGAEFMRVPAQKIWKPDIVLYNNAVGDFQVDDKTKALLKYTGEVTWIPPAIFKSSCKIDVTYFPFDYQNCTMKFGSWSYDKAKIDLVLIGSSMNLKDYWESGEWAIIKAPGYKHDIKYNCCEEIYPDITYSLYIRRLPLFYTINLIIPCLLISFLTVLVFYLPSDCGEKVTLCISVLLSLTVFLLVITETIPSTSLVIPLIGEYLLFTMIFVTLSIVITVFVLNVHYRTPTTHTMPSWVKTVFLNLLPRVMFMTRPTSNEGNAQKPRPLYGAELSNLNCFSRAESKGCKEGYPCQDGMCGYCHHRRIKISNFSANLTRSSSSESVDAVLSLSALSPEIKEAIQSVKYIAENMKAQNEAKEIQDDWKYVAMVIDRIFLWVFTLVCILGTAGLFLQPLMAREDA
Chain of Neuronal acetylcholine receptor subunit alpha-7 (P36544 whole entry): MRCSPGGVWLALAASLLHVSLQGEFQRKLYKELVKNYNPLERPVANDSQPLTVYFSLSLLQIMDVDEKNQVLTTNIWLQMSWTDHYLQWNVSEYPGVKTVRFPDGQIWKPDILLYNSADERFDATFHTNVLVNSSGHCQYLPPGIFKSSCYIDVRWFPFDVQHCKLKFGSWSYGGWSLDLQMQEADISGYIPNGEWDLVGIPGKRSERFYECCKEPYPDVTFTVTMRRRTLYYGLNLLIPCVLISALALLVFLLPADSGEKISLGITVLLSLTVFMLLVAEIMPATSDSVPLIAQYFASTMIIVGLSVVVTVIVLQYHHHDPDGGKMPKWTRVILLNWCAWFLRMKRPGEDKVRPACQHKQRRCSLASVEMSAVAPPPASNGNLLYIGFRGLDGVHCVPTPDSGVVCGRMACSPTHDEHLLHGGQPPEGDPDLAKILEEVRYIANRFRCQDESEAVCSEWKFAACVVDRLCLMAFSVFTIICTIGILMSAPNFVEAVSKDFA
Chain of Neuronal acetylcholine receptor; alpha4/beta2 (Rattus norvegicus, UniProt P09483+P12390) (P09483 whole entry): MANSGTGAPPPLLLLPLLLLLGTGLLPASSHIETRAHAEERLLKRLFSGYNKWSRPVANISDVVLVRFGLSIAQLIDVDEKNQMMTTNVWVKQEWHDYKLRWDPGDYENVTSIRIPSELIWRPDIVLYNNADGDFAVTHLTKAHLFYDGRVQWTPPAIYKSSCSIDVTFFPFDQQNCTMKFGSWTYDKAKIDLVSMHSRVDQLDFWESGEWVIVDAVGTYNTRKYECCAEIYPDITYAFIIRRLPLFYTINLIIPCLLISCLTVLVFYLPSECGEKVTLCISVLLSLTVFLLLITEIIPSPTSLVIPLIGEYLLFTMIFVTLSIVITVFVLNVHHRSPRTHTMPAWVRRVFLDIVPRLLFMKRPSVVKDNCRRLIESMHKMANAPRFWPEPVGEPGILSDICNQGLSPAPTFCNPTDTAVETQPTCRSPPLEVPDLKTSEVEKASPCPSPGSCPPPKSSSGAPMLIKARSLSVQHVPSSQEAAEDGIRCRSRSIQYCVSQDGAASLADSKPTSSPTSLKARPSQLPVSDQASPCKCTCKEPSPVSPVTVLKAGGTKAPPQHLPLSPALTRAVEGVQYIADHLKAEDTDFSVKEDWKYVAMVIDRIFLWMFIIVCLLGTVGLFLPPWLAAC
Chain of Neuronal acetylcholine receptor; alpha4/beta2 (Rattus norvegicus, UniProt P09483+P12390) (P12390 whole entry): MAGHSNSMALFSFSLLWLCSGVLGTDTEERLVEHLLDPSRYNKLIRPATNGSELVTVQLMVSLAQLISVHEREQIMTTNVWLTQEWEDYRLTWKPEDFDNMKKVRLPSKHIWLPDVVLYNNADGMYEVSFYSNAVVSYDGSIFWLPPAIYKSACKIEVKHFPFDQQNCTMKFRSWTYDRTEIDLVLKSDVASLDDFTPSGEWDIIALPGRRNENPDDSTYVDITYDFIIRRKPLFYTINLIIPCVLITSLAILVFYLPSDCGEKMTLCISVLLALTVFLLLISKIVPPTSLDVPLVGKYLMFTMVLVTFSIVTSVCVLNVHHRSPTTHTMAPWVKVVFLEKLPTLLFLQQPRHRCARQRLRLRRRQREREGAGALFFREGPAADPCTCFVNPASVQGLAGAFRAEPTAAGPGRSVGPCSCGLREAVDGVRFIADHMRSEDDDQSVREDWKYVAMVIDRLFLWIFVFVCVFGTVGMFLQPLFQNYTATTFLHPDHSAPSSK

By Ki is commonly meant a measure of affinity in units of concentration, obtained from inhibition or displacement. The term Emax denotes the greatest response seen or fitted, relative to the assay's reference. For orientation: EC50 means the concentration that produces a half-maximal response. For the compound `O=C(c1ccccn1)N1CC2CNCC2C1` (stereo not drawn), the Ki amounted to 21 µM in experiment [1], 0.34 µM in experiment [2], 100 µM in experiment [4] and 0.25 µM in experiment [7]. Besides, the Emax in experiment [3] turned out to be 3%; in experiment [5] it was 44%. Further, the results for the EC50 in experiment [6] and in experiment [8] were 34 µM and 51 µM, respectively.

`O=C(c1occc1Cl)N1CC2CNCC2C1` (stereo not drawn): the Ki in experiment [1] came to 2.4 µM; in experiment [2] it was 0.012 µM; in experiment [4], 2.6 µM; in experiment [7], 0.002 µM. Further, the Emax in experiment [3] amounted to 110%; in experiment [5], 79%. Further, the EC50 in experiment [6] came to 17 µM; in experiment [8] it was 22 µM.

Take `Cc1ccc(C(=O)N2CC3CNCC3C2)o1` (stereo not drawn): the Ki in experiment [1] is > 10 µM; in experiment [2], 0.23 µM; in experiment [4], 8.2 µM; in experiment [7], 0.042 µM. Further, the Emax in experiment [3] came to 7%; in experiment [5], 44%. For the same compound, the EC50 in experiment [6] stood at 22 µM; in experiment [8], 57 µM.

Turning to `O=C(c1cnco1)N1CC2CNCC2C1` (stereo not drawn), the Ki in experiment [1] was 11 µM; in experiment [2], 0.13 µM; in experiment [4], 7.6 µM; in experiment [7] it was 0.11 µM. In addition, the Emax in experiment [3] turned out to be 11%; in experiment [5] it was 110%. For the same compound, the EC50 in experiment [6] came to 4.2 µM; in experiment [8] it was 35 µM.

As to `O=C(c1ccco1)N1C[C@@H]2CN[C@H](C2)C1`, the Ki in experiment [1] came out at 0.45 µM; in experiment [2] it was 0.011 µM; in experiment [4], 5.5 µM; in experiment [7] it was 0.013 µM. Further, the figures for the Emax in experiment [3] and in experiment [5] were 130% and 36%, respectively. Further, the concentration giving a half-maximal response (EC50) was 7.4 µM in experiment [6] and 15 µM in experiment [8].

Consider `O=C(c1ccc(F)o1)N1CC2CNCC2C1` (stereo not drawn), for which the inhibitory constant (Ki) in experiment [1] came out at 12 µM; in experiment [2] it was 0.051 µM; in experiment [4], 1.2 µM; in experiment [7] it was 0.008 µM. In addition, the Emax in experiment [3] was determined as 55%; in experiment [5], 140%. Moreover, the values for the EC50 in experiment [6] and in experiment [8] were 5.8 µM and 31 µM, respectively.

On to `O=C(C1CC1)N1C[C@@H]2CN[C@H](C2)C1`, for which the Ki turned out to be 0.2 µM in experiment [1], 0.022 µM in experiment [2], 0.21 µM in experiment [4] and 0.001 µM in experiment [7]. The Emax amounted to 180% in experiment [3] and 130% in experiment [5]. Further, the EC50 was determined as 0.45 µM in experiment [6] and 1.8 µM in experiment [8].

On to `O=C(c1ccco1)N1C[C@H]2CN[C@@H](C2)C1`, for which the Ki in experiment [1] was found to be 1.7 µM; in experiment [2] it was 0.097 µM; in experiment [4], 0.56 µM; in experiment [7], 0.015 µM. Also, the figures for the Emax in experiment [3] and in experiment [5] were 120% and 83%, respectively. Further, the EC50 in experiment [6] amounted to 4.7 µM; in experiment [8] it was 17 µM.

As to `O=C(C1CC1)N1CC2CNCC(C2)C1`, the inhibitory constant (Ki) came out at 0.11 µM in experiment [1], 0.002 µM in experiment [2], 0.02 µM in experiment [4] and 0.001 µM in experiment [7]. Besides, the results for the Emax in experiment [3] and in experiment [5] were 160% and 46%, respectively. The EC50 in experiment [6] came to 0.85 µM; in experiment [8] it was 1.2 µM.

For the compound `O=C(c1cc(Br)co1)N1CC2CNCC2C1` (stereo not drawn), the Ki in experiment [1] stood at 7.7 µM; in experiment [2], 0.091 µM; in experiment [4] it was 4.6 µM; in experiment [7] it was 0.016 µM. The figures for the Emax in experiment [3] and in experiment [5] were 45% and 15%, respectively. Moreover, the EC50 in experiment [6] turned out to be 6.5 µM; in experiment [8], 36 µM.

`COc1ccc(C(=O)N2CC3CNCC(C3)C2)cc1`: the Ki was 27 µM in experiment [1], 0.38 µM in experiment [2], 100 µM in experiment [4] and 0.06 µM in experiment [7]. In addition, the Emax in experiment [3] is 7%; in experiment [5] it was 6%. The concentration giving a half-maximal response (EC50) in experiment [6] came out at 4.3 µM; in experiment [8] it was 28 µM.
